According to patent publication US12692232B2, “Indole carboxamide compound, preparation therefor and use thereof” (NANJING RUISHUNING MEDICAL TECHNOLOGY CO., LTD., priority 2021, dated 2026):

Experiments:
[1] = Stability at high temperature and high humidity (residual content); assay type: physicochemical
Experimental: The stability of compounds 1-1, 2-1 and the indole analogue 3-[(1-methyl-1H-indole-2-carbonyl) amino]propionic acid disclosed in CN2019107285315 was tested by experiments at high temperature and high humidity. The compounds were placed in 24-well plates, spread as a thin layer with a thickness of no more than 5 mm and placed in an oven at 60° C. for 10 days. Observation of appearance, TLC identification and determination of absorbance were carried out on the 5th day and the 10th day, respectively, in order to compare with the samples on the 0th day. An amount of compounds were taken into tightly closed brown colored penicillin bottles (the compounds were spread as a thin layer with a thickness of no more than 5 mm) and then placed into a tightly closed container with saturated NaCl solution and left at room temperature away from light for 10 days. Observation of appearance, TLC identification and determination of absorbance were carried out on the 5th day and the 10th day, respectively, in order to compare with the samples on the 0th day.

TRPC3 protein = molecular target: T1, TRPC3 protein (Homo sapiens, UniProt Q13507); experiment: MST binding to TRPC3 protein; details: for affinity strength to TRPC6 protein higher than to TRPC3 protein: MST Kd ratio
T1 sequence (Q13507 1-921): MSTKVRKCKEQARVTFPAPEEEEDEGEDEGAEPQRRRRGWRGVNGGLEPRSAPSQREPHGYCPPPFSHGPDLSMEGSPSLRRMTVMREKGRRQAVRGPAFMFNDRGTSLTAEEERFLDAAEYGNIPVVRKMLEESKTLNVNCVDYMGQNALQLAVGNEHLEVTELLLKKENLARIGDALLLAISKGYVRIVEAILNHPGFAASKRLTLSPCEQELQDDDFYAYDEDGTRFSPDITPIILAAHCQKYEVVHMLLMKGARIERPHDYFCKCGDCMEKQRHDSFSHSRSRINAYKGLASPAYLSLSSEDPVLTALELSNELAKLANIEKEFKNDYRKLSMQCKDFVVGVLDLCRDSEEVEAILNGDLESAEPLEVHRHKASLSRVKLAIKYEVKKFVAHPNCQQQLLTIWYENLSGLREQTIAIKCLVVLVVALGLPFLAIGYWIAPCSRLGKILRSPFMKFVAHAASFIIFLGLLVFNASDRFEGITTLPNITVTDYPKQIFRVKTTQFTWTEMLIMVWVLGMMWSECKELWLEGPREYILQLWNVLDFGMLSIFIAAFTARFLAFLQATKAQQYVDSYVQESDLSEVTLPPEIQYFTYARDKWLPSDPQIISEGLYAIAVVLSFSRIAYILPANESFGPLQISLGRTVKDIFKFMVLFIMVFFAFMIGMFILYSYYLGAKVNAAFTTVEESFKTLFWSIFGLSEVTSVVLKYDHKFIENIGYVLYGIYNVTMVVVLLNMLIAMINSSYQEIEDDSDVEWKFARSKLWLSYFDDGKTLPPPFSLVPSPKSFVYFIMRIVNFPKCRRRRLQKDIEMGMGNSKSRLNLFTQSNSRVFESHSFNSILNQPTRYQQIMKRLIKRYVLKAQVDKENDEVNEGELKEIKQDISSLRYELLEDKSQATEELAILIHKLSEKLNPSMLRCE
Experimental: Preparation and labelling of protein solution: TRPC6 protein dry powder (Alomone Labs, Israel) was prepared into a protein mother solution at a concentration of 10 μM using PBS-Buffer, and 35 μL of the protein stock solution was taken to the Buffer exchange A column, and centrifuged to obtain the Tris-removed protein. 34 μL Labelling Buffer was added to the Tris-removed protein according to the instructions of the Protein Fluorescent Labelling Kit (model L001). After mixing well, 3 μL of NT-647-NHS fluorescent dye was added and thus obtained mixture was incubated for 20 minutes. The protein-dye mixture was transferred to the purification B column, 300 μL of PBS-Buffer was added, and the target protein, i.e. fluorescent labelled protein TRPC6, was collected by centrifugation (with a final concentration of about 2 μM). 180 μL of target protein was mixed with 1620 μL of PBS-Buffer, and then 9 μl of Tween-20 were added thereto. Thus the resulting mixture was mixed and then centrifuged to obtain the target protein solution.
Preparation of compound solutions: the compounds were prepared separately with DMSO to storage solutions with a concentration of […]. 10 μL of each storage solution was placed in a […] EP tube, 90 μL of PBS was added thereto and the resulting mixture was thoroughly mixed to prepare 100 μL of working solution at a concentration of 1 μM for later use. Ligand gradient dilutions were made for a total of 16 concentrations, and 10 μL of 10% DMSO-Buffer was added to each of the 15 gradients except gradient 1, followed by the addition of 10 μL of ligand working solution to gradients 1 and 2, respectively. The liquid in tube 2 was mixed and then 10 μL therein was taken into tube 3, and dilution was carried out in this manner until tube 16. Tube 16 was mixed and 10 μL therein was taken and discarded, and the remainder was kept for later use.
Detection and analysis: 10 μL of protein solution was added to the 16 compound gradient dilutions respectively and mixed, and the resultant mixtures were transferred to capillary tubes sequentially to start detection on machine. After loading the data, the MST analysis model and Kd Model were selected to obtain the fitting curve and dissociation constant (Kd).
The binding ability of the compounds of the present invention (as exemplified by the compounds 1-1 and 2-1 obtained in Examples 1 and 3) for other TRPC proteins (e.g., TRPC1, TRPC3, TRPC4, TRPC5, and TRPC7) was determined using the microscale thermophoresis (MST) method. The method was as follows:
The affinity of the compounds of the present invention with TRPC1, TRPC3, TRPC4, TRPC5 and TRPC7 proteins, respectively, was determined by the same method as in Example 5.

[2] = high humidity environment (saturated NaCl, room temperature, away from light), after 5 days
[3] = high humidity environment (saturated NaCl, room temperature, away from light), after 10 days
[4] = high temperature environment (oven at 60° C.), after 5 days
[5] = high temperature environment (oven at 60° C.), after 10 days

| Structure (SMILES) | residual content [1, 2] [%] | residual content [1, 3] [%] | residual content [1, 4] [%] | residual content [1, 5] [%] | affinity strength to TRPC6 protein higher than to TRPC3 protein (TRPC3 protein) [fold] | Kd (TRPC3 protein; MST) [µM] |
| --- | --- | --- | --- | --- | --- | --- |
| Cn1c(C(=O)NCCC(=O)O)cc2ccccc21 [3-[(1-methyl-1H-indole-2-carbonyl)amino]propionic acid, reference compound] | 29.5±0.1 | 8.8±0.1 | 23.1±0.1 | 4.2±0.1 | 27 | – |
| CC(=O)OCCCNC(=O)c1c(C=O)c2ccccc2n1C [compound 1-1, propyl 3-[(3-formyl-1-methyl-1H-indole-2-carbonyl)amino]acetate] | 93.5±0.4 | 90.7±0.3 | 95.4±08 | 94.2±0.6 | 81 | – |
| Cn1c(C(=O)NCCCOC(=O)c2ccccc2)c(C=O)c2ccccc21 [compound 2-1] | 94.2±0.3 | 90.1±0.8 | 93.6±0.6 | 91.7±0.5 | 51 | 1.4 |
